Measured values published in patent US20240408086A1, “USE OF LUVADAXISTAT FOR THE TREATMENT OF COGNITIVE IMPAIRMENT” (TAKEDA PHARMACEUTICAL COMPANY LIMITED, priority 2021, published 2024).

System: adult patients with persistent negative symptoms of schizophrenia
Type: in vivo, human
Description: To assess changes in cognitive impairment associated with schizophrenia (CIAS), secondary endpoints included the 12-week change from baseline in the Brief Assessment of Cognition in Schizophrenia (BACS) composite score, a measure of cognition across multiple domains, and the Schizophrenia Cognition Rating Scale (SCORS) score, a measure of day-to-day cognitive functioning requiring input from an adult informant. Secondary endpoints were not corrected for multiplicity.
The BACS is specifically designed to measure treatment-related improvements in cognition and includes alternate forms. BACS is a reliable and sensitive measure of cognitive function in schizophrenia. The BACS is a cognition assessment battery that assesses 6 domains of cognitive function found to be consistently impaired in schizophrenia: verbal memory; working memory; motor speed; attention; executive functions; and verbal fluency. The primary measure from each test of the BACS is standardized by creating T-scores whereby the mean of the test session of a matched reference healthy participant is set to 50 and the standard deviation set to 10.

[1] = 125 mg once daily, preliminary analysis
[2] = 500 mg once daily, MMRM, preliminary analysis
[3] = 500 mg once daily, preliminary analysis

O=c1[nH]nc(CCc2ccc(C(F)(F)F)cc2)cc1O [Compound (I), luvadaxistat]
BACS Working Memory Cognition Domain, Change from Baseline to Week 6, Median [1]: 2.0 | BACS Working Memory Cognition Domain, Change from Baseline to Week 12, Mean (SD) [1]: 1.8 (7.40) | BACS Working Memory Cognition Domain, Change from Baseline to Week 12, Median [1]: 0.0 | BACS Working Memory Cognition Domain, Week 6, Mean (SD) [1]: 41.0 (11.17) | BACS Working Memory Cognition Domain, Week 6, Median [1]: 41.0 | BACS Working Memory Cognition Domain, Week 12, Mean (SD) [1]: 41.7 (13.58) | BACS Working Memory Cognition Domain, Week 12, Median [1]: 40.0 | BACS Attention Cognition Domain, Change from Baseline to Week 6, Mean (SD) (125 mg, Week 6): 2.2 (6.07) | BACS Attention Cognition Domain, Change from Baseline to Week 6, Median (125 mg, Week 6): 2.0 | BACS Attention Cognition Domain, Week 6, Mean (SD) (125 mg, Week 6): 36.7 (12.72) | BACS Attention Cognition Domain, Week 6, Median (125 mg, Week 6): 37.0 | BACS Executive Functions Cognition Domain, Change from Baseline to Week 6, Mean (SD) (125 mg, Week 6): 0.8 (9.01) | BACS Executive Functions Cognition Domain, Change from Baseline to Week 6, Median (125 mg, Week 6): 0.0 | BACS Executive Functions Cognition Domain, Week 6, Mean (SD) (125 mg, Week 6): 46.3 (16.06) | BACS Executive Functions Cognition Domain, Week 6, Median (125 mg, Week 6): 50.0 | BACS Verbal Fluency Cognition Domain, Change from Baseline to Week 6, Mean (SD) (125 mg, Week 6): 0.8 (4.53) | BACS Verbal Fluency Cognition Domain, Change from Baseline to Week 6, Median (125 mg, Week 6): 1.0 | BACS Verbal Fluency Cognition Domain, Week 6, Mean (SD) (125 mg, Week 6): 39.1 (8.98) | BACS Verbal Fluency Cognition Domain, Week 6, Median (125 mg, Week 6): 40.0 | BACS Attention Cognition Domain, Adjusted Change from Baseline to Week 6, LS Mean (SE) (125 mg, Week 6, MMRM): 2.2 (0.88) | BACS Attention Cognition Domain, Difference from Placebo for Week 6, LS Mean (SE) (125 mg, Week 6, MMRM): 1.2 (1.12) | BACS Executive Functions Cognition Domain, Adjusted Change from Baseline to Week 6, LS Mean (SE) (125 mg, Week 6, MMRM): 0.8 (1.19) | BACS Executive Functions Cognition Domain, Difference from Placebo for Week 6, LS Mean (SE) (125 mg, Week 6, MMRM): 2.0 (1.53) | BACS Verbal Fluency Cognition Domain, Adjusted Change from Baseline to Week 6, LS Mean (SE) (125 mg, Week 6, MMRM): 0.7 (0.68) | BACS Verbal Fluency Cognition Domain, Difference from Placebo for Week 6, LS Mean (SE) (125 mg, Week 6, MMRM): 0.6 (0.87) | BACS Attention Cognition Domain, Change from Baseline to Week 12, Mean (SD) (125 mg, Week 12): 1.2 (6.41) | BACS Attention Cognition Domain, Change from Baseline to Week 12, Median (125 mg, Week 12): 2.0 | BACS Attention Cognition Domain, Week 12, Mean (SD) (125 mg, Week 12): 36.2 (12.21) | BACS Attention Cognition Domain, Week 12, Median (125 mg, Week 12): 36.0 | BACS Executive Functions Cognition Domain, Change from Baseline to Week 12, Mean (SD) (125 mg, Week 12): 2.0 (8.79) | BACS Executive Functions Cognition Domain, Change from Baseline to Week 12, Median (125 mg, Week 12): 3.0 | BACS Executive Functions Cognition Domain, Week 12, Mean (SD) (125 mg, Week 12): 47.6 (13.17) | BACS Executive Functions Cognition Domain, Week 12, Median (125 mg, Week 12): 51.0 | BACS Verbal Fluency Cognition Domain, Change from Baseline to Week 12, Mean (SD) (125 mg, Week 12): 2.1 (5.59) | BACS Verbal Fluency Cognition Domain, Change from Baseline to Week 12, Median (125 mg, Week 12): 2.0 | BACS Verbal Fluency Cognition Domain, Week 12, Mean (SD) (125 mg, Week 12): 40.6 (9.54) | BACS Verbal Fluency Cognition Domain, Week 12, Median (125 mg, Week 12): 39.0 | BACS Attention Cognition Domain, Adjusted Change from Baseline to Week 12, LS Mean (SE) (125 mg, Week 12, MMRM): 1.4 (1.01) | BACS Attention Cognition Domain, Difference from Placebo for Week 12, LS Mean (SE) (125 mg, Week 12, MMRM): −0.5 (1.29) | BACS Executive Functions Cognition Domain, Adjusted Change from Baseline to Week 12, LS Mean (SE) (125 mg, Week 12, MMRM): 2.0 (1.09) | BACS Executive Functions Cognition Domain, Difference from Placebo for Week 12, LS Mean (SE) (125 mg, Week 12, MMRM): 1.4 (1.38) | BACS Verbal Fluency Cognition Domain, Adjusted Change from Baseline to Week 12, LS Mean (SE) (125 mg, Week 12, MMRM): 1.9 (0.84) | BACS Verbal Fluency Cognition Domain, Difference from Placebo for Week 12, LS Mean (SE) (125 mg, Week 12, MMRM): 0.9 (1.07) | BACS Verbal Memory Cognition Domain, Difference from Placebo for Week 6, LS Mean (SE) (500 mg once daily, MMRM, one-sided unadjusted p 0.070, preliminary analysis): 2.0 (1.33) | BACS Composite Score, Difference from Placebo for Week 6, LS Mean (SE) (500 mg once daily, MMRM, one-sided unadjusted p 0.194, preliminary analysis): 0.9 (1.04) | BACS Composite Score, Difference from Placebo for Week 12, LS Mean (SE) (500 mg once daily, MMRM, one-sided unadjusted p 0.260, preliminary analysis): 0.8 (1.20) | BACS Verbal Memory Cognition Domain, Difference from Placebo for Week 12, LS Mean (SE) (500 mg once daily, MMRM, one-sided unadjusted p 0.329, preliminary analysis): 0.7 (1.49) | BACS Motor Speed Cognition Domain, Difference from Placebo for Week 12, LS Mean (SE) (500 mg once daily, MMRM, one-sided unadjusted p 0.405, preliminary analysis): 0.3 (1.22) | BACS Working Memory Cognition Domain, Difference from Placebo for Week 12, LS Mean (SE) (500 mg once daily, MMRM, one-sided unadjusted p 0.637, preliminary analysis): −0.5 (1.40) | BACS Working Memory Cognition Domain, Difference from Placebo for Week 6, LS Mean (SE) (500 mg once daily, MMRM, one-sided unadjusted p 0.788, preliminary analysis): −0.9 (1.19) | BACS Motor Speed Cognition Domain, Difference from Placebo for Week 6, LS Mean (SE) (500 mg once daily, MMRM, one-sided unadjusted p 0.812, preliminary analysis): −1.1 (1.30) | BACS Composite Score, Adjusted Change from Baseline to Week 6, LS Mean (SE) [2]: 0.5 (0.87) | BACS Composite Score, Adjusted Change from Baseline to Week 12, LS Mean (SE) [2]: 1.5 (0.99) | BACS Motor Speed Cognition Domain, Adjusted Change from Baseline to Week 6, LS Mean (SE) [2]: −1.3 (1.07) | BACS Motor Speed Cognition Domain, Adjusted Change from Baseline to Week 12, LS Mean (SE) [2]: −0.2 (1.02) | BACS Verbal Memory Cognition Domain, Adjusted Change from Baseline to Week 6, LS Mean (SE) [2]: 0.7 (1.11) | BACS Verbal Memory Cognition Domain, Adjusted Change from Baseline to Week 12, LS Mean (SE) [2]: 0.0 (1.23) | BACS Working Memory Cognition Domain, Adjusted Change from Baseline to Week 6, LS Mean (SE) [2]: −0.9 (0.98) | BACS Working Memory Cognition Domain, Adjusted Change from Baseline to Week 12, LS Mean (SE) [2]: 0.2 (1.15) | BACS Composite Score, Change from Baseline to Week 6, Mean (SD) [3]: 1.5 (7.57) | BACS Composite Score, Change from Baseline to Week 6, Median [3]: 1.0 | BACS Composite Score, Change from Baseline to Week 12, Mean (SD) [3]: 3.0 (7.98) | BACS Composite Score, Change from Baseline to Week 12, Median [3]: 3.0
